In ChEMBL document CHEMBL5214898 (J Med Chem, 2021):

Assays:
[1] = Unbound Cmax in rat at 10 mg/kg; type: ADME, organism-based; settings: in vivo
[2] = Drug uptake in rat at 10 mg/kg measured after 24 hrs; type: ADME, organism-based; settings: in vivo, read-out: Drug uptake
[3] = Cmax in rat at 10 mg/kg; type: ADME, organism-based; set-up: dose 10 mg/kg; settings: in vivo
[4] = Drug uptake in rat assessed as unbound concentration at 10 mg/kg measured after 24 hrs; type: ADME, organism-based; settings: in vivo
[5] = Drug uptake in Beagle dog plasma 2 mg/kg, po measured after 24 hrs mins by LC-MS/MS analysis; type: ADME, organism-based, Canis lupus familiaris
[6] = Oral bioavailability in Wistar Han rat plasma 10 mg/kg measured for 15 to 1440 mins by LC-MS/MS analysis relative to control; type: ADME, organism-based; settings: time 15-1440 min
[7] = Drug uptake in Wistar Han rat plasma 10 mg/kg, po measured after 24 hrs mins by LC-MS/MS analysis; type: ADME, organism-based
[8] = Clearance in Wistar Han rat plasma 2 mg/kg, iv measured for 2 to 1440 mins by LC-MS/MS analysis; type: ADME, organism-based; settings: time 2-1440 min
[9] = Cmax in Wistar Han rat plasma 10 mg/kg, po measured for 15 to 1440 mins by LC-MS/MS analysis; type: ADME, organism-based
[10] = Half life in Wistar Han rat plasma 2 mg/kg, iv by LC-MS/MS analysis; type: ADME, organism-based
[11] = Cmax in Beagle dog plasma 2 mg/kg, po measured for 15 to 1440 mins by LC-MS/MS analysis; type: ADME, organism-based, Canis lupus familiaris
[12] = AUC in Beagle dog plasma 2 mg/kg, po measured for 15 to 1440 mins by LC-MS/MS analysis; type: ADME, organism-based, Canis lupus familiaris
[13] = Tmax in Wistar Han rat plasma 10 mg/kg, po measured for 15 to 1440 mins by LC-MS/MS analysis; type: ADME, organism-based; settings: time 15-1440 min
[14] = Half life in Beagle dog plasma 1 mg/kg, iv by LC-MS/MS analysis; type: ADME, organism-based, Canis lupus familiaris
[15] = Tmax in Beagle dog plasma 2 mg/kg, po measured for 15 to 1440 mins by LC-MS/MS analysis; type: ADME, organism-based, Canis lupus familiaris; settings: time 15-1440 min
[16] = Oral bioavailability in Beagle dog plasma 2 mg/kg measured for 15 to 1440 mins by LC-MS/MS analysis relative to control; type: ADME, organism-based, Canis lupus familiaris; settings: time 15-1440 min
[17] = Clearance in Beagle dog plasma 1 mg/kg, iv measured for 2 to 1440 mins by LC-MS/MS analysis; type: ADME, organism-based, Canis lupus familiaris; settings: time 2-1440 min
[18] = AUC in Wistar Han rat plasma 10 mg/kg, po measured for 15 to 1440 mins by LC-MS/MS analysis; type: ADME, organism-based

fCmax [1] [nM] | concentration at 24 h [2] [nM] | Cmax [3] [nM] | Drug uptake(free) [4] [nM] | concentration at 24 h [5] [nM] | bioavailability [6] [%] | concentration at 24 h [7] [nM] | clearance [8] [mL/min/kg] | Cmax [9] [nM] | half-life [10] [h] | Cmax [11] [nM] | AUC [12] [µM·h] | Tmax [13] [h] | half-life [14] [h] | Tmax [15] [h] | bioavailability [16] [%] | clearance [17] [mL/min/kg] | AUC [18] [µM·h] | Structure (SMILES)
7.5 | 9 | 627 | 0.11 |  |  |  |  |  |  |  |  |  |  |  |  |  |  | CCC(=O)CCCCC[C@H](NC(=O)[C@H]1CC12CCN(C)CC2)c1ncc(-c2cc3ccccc3nc2OC)[nH]1
 |  |  |  | 1.2 | 7.9 | 3.2 | 51 | 97 | 13 | 26 | 0.1 | 2.1 | 19 | 1.3 | 4.1 | 24 | 0.47 | CCC(=O)CCCCC[C@H](NC(=O)[C@H]1CC12CCN(CC)CC2)c1ncc(-c2cc3ccc(C)nc3cc2OC)[nH]1
 |  |  |  |  | 0.1 |  | 45 | 4 | 2.9 |  |  | 0.3 |  |  |  |  | 0.01 | CCC(=O)CCCCC[C@H](NC(=O)[C@H]1CC12CCN(C)CC2)c1ncc(-c2ccc3nc(C)ccc3c2)[nH]1
 |  |  |  |  | 2 | 1 | 61 | 20 | 9.5 |  |  | 2.1 |  |  |  |  | 0.06 | CCC(=O)CCCCC[C@H](NC(=O)[C@H]1CC12CCN(C)CC2)c1ncc(-c2cc3cccnc3cc2OC)[nH]1
 |  |  |  |  | 0.6 | 1 | 60 | 9 | 24 |  |  | 2.1 |  |  |  |  | 0.02 | CCC(=O)CCCCC[C@H](NC(=O)[C@H]1CC12CCN(C(C)C)CC2)c1ncc(-c2cc3ccc(C)nc3cc2OC)[nH]1
 |  |  |  |  | 2.5 | 8.9 | 12 | 170 | 33 |  |  | 5 |  |  |  |  | 0.98 | CCC(=O)CCCCC[C@H](NC(=O)[C@H]1CC12CCN(C)CC2)c1ncc(-c2cc3ccc(C)nc3cc2OC)[nH]1

More lines, now with the values behind:

Structure (SMILES) | fCmax [1] [nM] | concentration at 24 h [2] [nM] | Cmax [3] [nM] | Drug uptake(free) [4] [nM] | concentration at 24 h [5] [nM] | bioavailability [6] [%] | concentration at 24 h [7] [nM] | clearance [8] [mL/min/kg] | Cmax [9] [nM] | half-life [10] [h] | Cmax [11] [nM] | AUC [12] [µM·h] | Tmax [13] [h] | half-life [14] [h] | Tmax [15] [h] | bioavailability [16] [%] | clearance [17] [mL/min/kg] | AUC [18] [µM·h]
CCC(=O)CCCCC[C@H](NC(=O)[C@H]1CC12CCN(CC)CC2)c1ncc(-c2cc3ccc(C)nc3cc2OC)o1 |  |  |  |  | 2 | 25 | 7.2 | 65 | 150 | 5.4 | 15 | 0.07 | 5 | 91 | 3 | 11 | 2.9 | 1.1
CCC(=O)CCCCC[C@H](NC(=O)[C@H]1CC12CCN(C)CC2)c1ncc(-c2cc3ccc(C)nc3cc2OC)o1 |  |  |  |  | 3.3 | 78 | 28 | 25 | 2500 | 4.8 | 72 | 0.57 | 4 | 43 | 3 | 42 | 6 | 10
CCC(=O)CCCCC[C@H](NC(=O)[C@H]1CC12CCN(CC)CC2)c1ncc(-c2cc3cn(C)nc3cc2OC)o1 |  |  |  |  |  | 37 | 3.6 | 49 | 510 | 5.1 |  |  | 4 |  |  |  |  | 2.3
CCC(=O)CCCCC[C@H](NC(=O)[C@H]1CC12CCN(CC)CC2)c1ncc(-c2cc3ccn(CC)c(=O)c3cc2OC)o1 |  |  |  |  |  | 22 | 2.2 | 100 | 120 | 6.5 |  |  | 5 |  |  |  |  | 0.6
CCC(=O)CCCCC[C@H](NC(=O)[C@H]1CC12CCN(C)CC2)c1ncc(-c2cc3ccc(C)nc3cc2F)o1 |  |  |  |  |  | 6.9 | 1 | 71 | 63 | 1.9 |  |  | 2 |  |  |  |  | 0.3
CCC(=O)CCCCC[C@H](NC(=O)[C@H]1CC12CCN(CC)CC2)c1ncc(-c2cc3cccnc3nc2OC)o1 |  |  |  |  |  | 20 | 9.2 | 6 | 2100 | 3.9 |  |  | 3 |  |  |  |  | 9.7
